A value given as a limit tells only on which side of the number the result lay.

The target of the test is T1, CBL-B (Homo sapiens, UniProt Q13191).
T1 construct: GST
T1 sequence (Q13191 whole entry): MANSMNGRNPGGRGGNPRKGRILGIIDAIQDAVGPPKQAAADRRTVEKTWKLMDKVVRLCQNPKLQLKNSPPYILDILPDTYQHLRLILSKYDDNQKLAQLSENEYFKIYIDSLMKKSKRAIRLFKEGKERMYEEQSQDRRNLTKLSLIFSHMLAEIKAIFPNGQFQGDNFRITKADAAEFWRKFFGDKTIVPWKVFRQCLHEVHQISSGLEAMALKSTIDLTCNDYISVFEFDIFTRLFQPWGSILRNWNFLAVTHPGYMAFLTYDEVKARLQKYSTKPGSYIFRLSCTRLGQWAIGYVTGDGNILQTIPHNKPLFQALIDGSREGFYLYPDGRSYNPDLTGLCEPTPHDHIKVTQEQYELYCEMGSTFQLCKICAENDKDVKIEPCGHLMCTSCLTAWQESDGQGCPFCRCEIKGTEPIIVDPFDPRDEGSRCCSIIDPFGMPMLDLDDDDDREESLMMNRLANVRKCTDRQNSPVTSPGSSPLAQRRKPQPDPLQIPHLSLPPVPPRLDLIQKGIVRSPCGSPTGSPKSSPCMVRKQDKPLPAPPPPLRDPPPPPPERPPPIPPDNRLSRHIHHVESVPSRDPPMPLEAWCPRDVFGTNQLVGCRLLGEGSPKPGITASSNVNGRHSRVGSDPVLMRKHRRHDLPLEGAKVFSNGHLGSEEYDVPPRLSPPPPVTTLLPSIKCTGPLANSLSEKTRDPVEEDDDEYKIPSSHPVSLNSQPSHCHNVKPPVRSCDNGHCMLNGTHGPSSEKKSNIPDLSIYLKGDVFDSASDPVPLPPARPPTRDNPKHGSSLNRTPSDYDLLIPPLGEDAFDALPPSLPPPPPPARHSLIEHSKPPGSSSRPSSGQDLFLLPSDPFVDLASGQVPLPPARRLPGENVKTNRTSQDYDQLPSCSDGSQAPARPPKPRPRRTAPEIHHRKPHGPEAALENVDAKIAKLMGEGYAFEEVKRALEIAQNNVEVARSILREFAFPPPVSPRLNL
Put plainly: CBL-B TR-FRET IC50 screening (E1/E2 ubiquitination, Biotin-Ubiquitin, Anti GST-Tb donor / Streptavidin-d2 acceptor). The format is biochemical. To be noted: second part of Table 2 (head 'Patent Cmpd No / Updated Activity'); same CBL-B TR-FRET IC50 bins A-F; read-out: Updated Activity.
Turning to `CC(=O)NCc1cc([C@@H](c2nncn2C)C2CCC2)cc(-n2cc3c(C(F)(F)F)cccn3c2=O)c1` (single isomer, unassigned) [Compound 478], the IC50 was > 10 µM.
Next, `CC(=O)NCc1cc([C@H](c2nncn2C)C2CCC2)cc(-n2cc3c(C(F)(F)F)cccn3c2=O)c1` (single isomer, unassigned) [Compound 479]: 3 to 10 µM.
Take `Cn1cnnc1C1(c2cccc(-n3cc4c(C(F)(F)F)cc(CN5CCC[C@H](C(F)(F)F)C5)cn4c3=O)c2)CC2(CC2)C1` (single isomer, unassigned) [Compound 480]: the IC50 was < 0.1 µM.
In the case of `Cn1cnnc1C1(c2cccc(-n3cc4c(C(F)(F)F)cc(CN5CCC[C@@H](C(F)(F)F)C5)cn4c3=O)c2)CC2(CC2)C1` (single isomer, unassigned) [Compound 481], the IC50 is < 0.1 µM.
The value for `C[C@H](c1cc(C(F)(F)F)c2cn(-c3cccc([C@H](c4nncn4C)C4CCC4)c3)c(=O)n2c1)N1CC[C@H](F)C1` (single isomer, unassigned) [Compound 485] was < 0.1 µM; that for `C[C@@H](c1cc(C(F)(F)F)c2cn(-c3cccc([C@H](c4nncn4C)C4CCC4)c3)c(=O)n2c1)N1CC[C@H](F)C1` (single isomer, unassigned) [Compound 486] was < 0.1 µM; that for `COC[C@H]1C[C@@H]([C@@H](c2cccc(-n3cc4c(C(F)(F)F)cc(CN5CCC[C@H](C)C5)cn4c3=O)c2)c2nncn2C)C1` (single isomer, unassigned) [Compound 492] was > 10 µM.
The value for `COC[C@H]1C[C@H]([C@H](c2cccc(-n3cc4c(C(F)(F)F)cc(CN5CCC[C@H](C)C5)cn4c3=O)c2)c2nncn2C)C1` (single isomer, unassigned) [Compound 493] was > 10 µM; that for `COC[C@H]1C[C@H]([C@@H](c2cccc(-n3cc4c(C(F)(F)F)cc(CN5CCC[C@H](C)C5)cn4c3=O)c2)c2nncn2C)C1` (single isomer, unassigned) [Compound 494] was < 0.1 µM; that for `COC[C@H]1C[C@@H]([C@H](c2cccc(-n3cc4c(C(F)(F)F)cc(CN5CCC[C@H](C)C5)cn4c3=O)c2)c2nncn2C)C1` (single isomer, unassigned) [Compound 495] was 0.1 to 0.3 µM.
Next, `Cn1cnnc1[C@@H](c1cc(C#N)cc(-n2cc3c(C(F)(F)F)cc(CN4CCC5(CC5)C4)cn3c2=O)c1)C1CCC1` (single isomer, unassigned) [Compound 496]: > 10 µM.
With `Cn1cnnc1[C@H](c1cc(C#N)cc(-n2cc3c(C(F)(F)F)cc(CN4CCC5(CC5)C4)cn3c2=O)c1)C1CCC1` (single isomer, unassigned) [Compound 497], the IC50 was < 0.1 µM.
As for `C[C@H](c1cc(C(F)(F)F)c2cn(-c3cccc([C@H](c4nncn4C)C4CCC4)c3)c(=O)n2c1)N1CC[C@@H](F)C1` (single isomer, unassigned) [Compound 500], the IC50 is < 0.1 µM.
The value for `C[C@@H](c1cc(C(F)(F)F)c2cn(-c3cccc([C@H](c4nncn4C)C4CCC4)c3)c(=O)n2c1)N1CC[C@@H](F)C1` (single isomer, unassigned) [Compound 501] was < 0.1 µM.
Next, `Cn1cnnc1[C@@H](c1cc(C#N)cc(-n2cc3c(C(F)(F)F)cc(CN4CCC(C)(F)CC4)cn3c2=O)c1)C1CCC1` (single isomer, unassigned) [Compound 508]: < 0.1 µM.
Next, `C[C@@H]1CN(Cc2cc(C(F)(F)F)c3cn(-c4cc(C#N)cc([C@H](c5nncn5C)C5CCC5)c4)c(=O)n3c2)CCO1` (single isomer, unassigned) [Compound 509]: < 0.1 µM; `Cn1cnnc1[C@@H](c1cc(F)cc(-n2cc3c(C(F)(F)F)cc(CN4CCC5(CC5)C4)cn3c2=O)c1)C1CCC1` (single isomer, unassigned) [Compound 510]: 0.301 to 1 µM.
With `C[C@@H]1CN(Cc2cc(C(F)(F)F)c3cn(-c4cc(F)cc([C@H](c5nncn5C)C5CCC5)c4)c(=O)n3c2)CCO1` (single isomer, unassigned) [Compound 511], the IC50 was > 10 µM.
The value for `CC(=O)N(C)Cc1cc([C@@H](c2nncn2C)C2CCC2)cc(-n2cc3c(C(F)(F)F)cccn3c2=O)c1` (single isomer, unassigned) [Compound 512] was > 10 µM; that for `CC(=O)N(C)Cc1cc([C@H](c2nncn2C)C2CCC2)cc(-n2cc3c(C(F)(F)F)cccn3c2=O)c1` (single isomer, unassigned) [Compound 513] was > 10 µM; that for `Cn1cnnc1[C@H](c1cc(F)cc(-n2cc3c(C(F)(F)F)cc(CN4CCC5(CC5)C4)cn3c2=O)c1)C1CCC1` (single isomer, unassigned) [Compound 514] was < 0.1 µM.
The value for `C[C@@H]1CN(Cc2cc(C(F)(F)F)c3cn(-c4cc(F)cc([C@@H](c5nncn5C)C5CCC5)c4)c(=O)n3c2)CCO1` (single isomer, unassigned) [Compound 515] was > 10 µM.
For `Cn1cnnc1[C@H](c1cc(C#N)cc(-n2cc3c(C(F)(F)F)cc(CN4CCC(C)(F)CC4)cn3c2=O)c1)C1CCC1` (single isomer, unassigned) [Compound 516], the IC50 is > 10 µM.
Next, `C[C@@H]1CN(Cc2cc(C(F)(F)F)c3cn(-c4cc(C#N)cc([C@@H](c5nncn5C)C5CCC5)c4)c(=O)n3c2)CCO1` (single isomer, unassigned) [Compound 517]: > 10 µM.
Next, `COCCO[C@H]1CCCN(Cc2cc(C(F)(F)F)c3cn(-c4cccc([C@H](c5nncn5C)C5CCC5)c4)c(=O)n3c2)C1` (single isomer, unassigned) [Compound 518]: < 0.1 µM; `COCCO[C@@H]1CCCN(Cc2cc(C(F)(F)F)c3cn(-c4cccc([C@H](c5nncn5C)C5CCC5)c4)c(=O)n3c2)C1` (single isomer, unassigned) [Compound 519]: < 0.1 µM.
The value for `CO[C@]1(C)C[C@H]([C@H](c2cccc(-n3cc4c(C(F)(F)F)cc(CN5CCC[C@H](C)C5)cn4c3=O)c2)c2nncn2C)C1` (single isomer, unassigned) [Compound 529] was > 10 µM.
Turning to `CO[C@]1(C)C[C@H]([C@@H](c2cccc(-n3cc4c(C(F)(F)F)cc(CN5CCC[C@H](C)C5)cn4c3=O)c2)c2nncn2C)C1` (single isomer, unassigned) [Compound 530], the IC50 was > 10 µM.
Next, `Cn1cnnc1[C@H](c1cc(-c2nnnn2C)cc(-n2cc3c(C(F)(F)F)cccn3c2=O)c1)C1CCC1` (single isomer, unassigned) [Compound 531]: 0.301 to 1 µM.
Next, `Cn1cnnc1[C@@H](c1cc(-c2nnnn2C)cc(-n2cc3c(C(F)(F)F)cccn3c2=O)c1)C1CCC1` (single isomer, unassigned) [Compound 532]: > 10 µM; `Cn1cnnc1[C@@H](c1cc(F)cc(-n2cc3c(C(F)(F)F)cc(CN4CC5(CC5)C4)cn3c2=O)c1)C1CCC1` (single isomer, unassigned) [Compound 533]: 1 to 3 µM; `Cn1cnnc1[C@@H](c1cc(F)cc(-n2cc3c(C(F)(F)F)cc(CN4CCC(C)(F)CC4)cn3c2=O)c1)C1CCC1` (single isomer, unassigned) [Compound 534]: < 0.1 µM.
Next, `CNC(=O)Cc1cc([C@@H](c2nncn2C)C2CCC2)cc(-n2cc3c(C(F)(F)F)cccn3c2=O)c1` (single isomer, unassigned) [Compound 537]: > 10 µM.

For the origin of these results see patent US20240228482A1, “COMPOUNDS, COMPOSITIONS AND METHODS OF TREATING CANCER” (HOTSPOT THERAPEUTICS, INC., priority 2021, published 2024).
